Activity calls are given as the source filed them. The rule behind the calls is not given here.
Assays:
U-937 [1] = assay: Induction of apoptosis in human U937 cells assessed as cleavage of procaspase 7 at 10 to 30 uM after 24 hrs by Western blot analysis; format: functional, cell-based
MCF7 [2] = assay: Cytotoxicity against human MCF7 cells assessed as morphological changes at 10 uM after 24 hrs by inverted phase-contrast microscopic analysis; format: functional, cell-based
HL-60 [3] = assay: Cytotoxicity against human HL60 cells after 72 hrs by MTT assay; format: functional, cell-based; settings: for IC50: HL-60, 72 h
U-937 [4] = assay: Cytotoxicity against human U937 cells assessed as reduction in cell number at 10 uM after 24 hrs by inverted phase-contrast microscopic analysis; format: functional, cell-based
U-937 [5] = assay: Induction of apoptosis in human U937 cells assessed as change in Bcl-2 protein level at 10 to 30 uM after 24 hrs by Western blot analysis; format: functional, cell-based
U-937 [6] = assay: Induction of apoptosis in human U937 cells assessed as decrease in Bid protein level at 10 to 30 uM after 24 hrs by Western blot analysis; format: functional, cell-based
U-937 [7] = assay: Induction of apoptosis in human U937 cells assessed as […] hydrolysis of chromatin at 10 uM after 24 hrs by agarose gel electrophoretic analysis; format: functional, cell-based
HL-60 [8] = assay: Induction of apoptosis in human HL60 cells assessed as increase in caspase 9-mediated cleavage of LEHD-pNA at 30 uM after 24 hrs; format: functional, cell-based
HL-60 [9] = assay: Cell cycle in human HL60 cells at 30 uM after 24 hrs by flow cytometric analysis in presence of 100 uM caspase inhibition Z-VAD-fmk; format: functional, cell-based
U-937 [10] = assay: Induction of apoptosis in human U937 cells assessed as increase in chromatin condensation at 10 uM after 24 hrs by Hoechst staining-based flow cytometric analysis; format: functional, cell-based
HL-60 [11] = assay: Induction of apoptosis in human HL60 cells assessed as cleavage of procaspase 9 at 10 to 30 uM after 24 hrs by Western blot analysis; format: functional, cell-based
HL-60 [12] = assay: Induction of apoptosis in human HL60 cells assessed as release of cytochrome c release from mitochondria at 10 to 30 uM after 24 hrs by Western blot analysis; format: functional, cell-based
HL-60 [13] = assay: Cytotoxicity against human HL60 cells assessed as reduction in cell number at 10 uM after 24 hrs by inverted phase-contrast microscopic analysis; format: functional, cell-based
U-937 [14] = assay: Induction of apoptosis in human U937 cells assessed as increase in Bax protein level at 10 to 30 uM after 24 hrs by Western blot analysis; format: functional, cell-based
U-937 [15] = assay: Induction of apoptosis in human U937 cells assessed as increase in caspase 8-mediated cleavage of IETD-pNA at 30 uM after 24 hrs; format: functional, cell-based
HL-60 [16] = assay: Induction of apoptosis in human HL60 cells assessed as increase in caspase 3/7-mediated cleavage of DEVD-pNA at 30 uM after 24 hrs relative to control; format: functional
U-937 [17] = assay: Cytotoxicity against human U937 cells after 72 hrs by MTT assay; format: functional, cell-based; settings: for IC50: U-937, 72 h
HL-60 [18] = assay: Induction of apoptosis in human HL60 cells assessed as cleavage of procaspase 7 at 10 to 30 uM after 24 hrs by Western blot analysis; format: functional, cell-based
MOLT-3 [19] = assay: Cytotoxicity against human MOLT3 cells after 72 hrs by MTT assay; format: functional, cell-based; settings: for IC50: MOLT-3, 72 h
HL-60 [20] = assay: Induction of apoptosis in human HL60 cells assessed as decrease in ROS level up to 12 hrs by H2-DCF-DA dye-based flow cytometric analysis; format: functional, cell-based
U-937 [21] = assay: Induction of apoptosis in human U937 cells assessed as increase in apoptotic cells at 30 uM after 24 hrs by propidium iodide staining-based flow cytometric analysis relative to control; format: functional
U-937 [22] = assay: Induction of apoptosis in human U937 cells assessed as increase in caspase 9-mediated cleavage of LEHD-pNA at 30 uM after 24 hrs; format: functional, cell-based
MOLT-3 [23] = assay: Cytotoxicity against human MOLT3 cells assessed as morphological changes at 10 uM after 24 hrs by inverted phase-contrast microscopic analysis; format: functional, cell-based
MOLT-3 [24] = assay: Induction of apoptosis in human MOLT3 cells assessed as increase in caspase 8-mediated cleavage of IETD-pNA at 30 uM after 24 hrs; format: functional, cell-based
HL-60 [25] = assay: Induction of apoptosis in human HL60 cells assessed as decrease in Bid protein level at 10 to 30 uM after 24 hrs by Western blot analysis; format: functional, cell-based
U-937 [26] = assay: Induction of apoptosis in human U937 cells assessed as cleavage of procaspase 9 at 10 to 30 uM after 24 hrs by Western blot analysis; format: functional, cell-based
MOLT-3 [27] = assay: Cytotoxicity against human MOLT3 cells assessed as reduction in cell number at 10 uM after 24 hrs by inverted phase-contrast microscopic analysis; format: functional, cell-based
HL-60 [28] = assay: Induction of apoptosis in human HL60 cells assessed as increase in chromatin condensation at 10 uM after 24 hrs by Hoechst staining-based flow cytometric analysis; format: functional, cell-based
U-937 [29] = assay: Cytotoxicity against human U937 cells assessed as morphological changes at 10 uM after 24 hrs by inverted phase-contrast microscopic analysis; format: functional, cell-based
U-937 [30] = assay: Induction of apoptosis in human U937 cells assessed as release of cytochrome c release from mitochondria at 10 to 30 uM after 24 hrs by Western blot analysis; format: functional, cell-based
HL-60 [31] = assay: Induction of apoptosis in human HL60 cells assessed as increase in Bax protein level at 10 to 30 uM after 24 hrs by Western blot analysis; format: functional, cell-based
HL-60 [32] = assay: Induction of apoptosis in human HL60 cells assessed as change in Bcl-2 protein level at 10 to 30 uM after 24 hrs by Western blot analysis; format: functional, cell-based
U-937 [33] = assay: Induction of apoptosis in human U937 cells assessed as cleavage of procaspase 3 at 10 to 30 uM after 24 hrs by Western blot analysis; format: functional, cell-based
HL-60 [34] = assay: Induction of apoptosis in human HL60 cells assessed as increase in apoptotic cells at 30 uM after 24 hrs by propidium iodide staining-based flow cytometric analysis relative to control; format: functional
HL-60 [35] = assay: Cytotoxicity against human HL60 cells assessed as morphological changes at 10 uM after 24 hrs by inverted phase-contrast microscopic analysis; format: functional, cell-based
HL-60 [36] = assay: Induction of apoptosis in human HL60 cells assessed as increase in hypodiploid cells at 30 uM after 24 hrs by propidium iodide staining-based flow cytometric analysis in presence of 100 uM caspase inhibition Z-VAD-fmk; format: functional, cell-based
HL-60 [37] = assay: Induction of apoptosis in human HL60 cells assessed as […] hydrolysis of chromatin at 10 uM after 24 hrs by agarose gel electrophoretic analysis; format: functional, cell-based
MOLT-3 [38] = assay: Induction of apoptosis in human MOLT3 cells assessed as increase in caspase 9-mediated cleavage of LEHD-pNA at 30 uM after 24 hrs; format: functional, cell-based
HL-60 [39] = assay: Induction of apoptosis in human HL60 cells assessed as increase in caspase 8-mediated cleavage of IETD-pNA at 30 uM after 24 hrs; format: functional, cell-based
U-937 [40] = assay: Induction of apoptosis in human U937 cells assessed as cleavage of procaspase 6 at 10 to 30 uM after 24 hrs by Western blot analysis; format: functional, cell-based
MOLT-3 [41] = assay: Induction of apoptosis in human MOLT3 cells assessed as […] hydrolysis of chromatin at 10 uM after 24 hrs by agarose gel electrophoretic analysis; format: functional, cell-based
MOLT-3 [42] = assay: Induction of apoptosis in human MOLT3 cells assessed as increase in chromatin condensation at 10 uM after 24 hrs by Hoechst staining-based flow cytometric analysis; format: functional, cell-based
HL-60 [43] = assay: Induction of apoptosis in human HL60 cells assessed as cleavage of procaspase 6 at 10 to 30 uM after 24 hrs by Western blot analysis; format: functional, cell-based
U-937 [44] = assay: Induction of apoptosis in human U937 cells assessed as increase in caspase 3/7-mediated cleavage of DEVD-pNA at 30 uM after 24 hrs relative to control; format: functional
HL-60 [45] = assay: Induction of apoptosis in human HL60 cells assessed as cleavage of procaspase 3 at 10 to 30 uM after 24 hrs by Western blot analysis; format: functional, cell-based
MCF7 [46] = assay: Cytotoxicity against human MCF7 cells after 72 hrs by MTT assay; format: functional, cell-based; settings: for IC50: MCF7, 72 h
MOLT-3 [47] = assay: Induction of apoptosis in human MOLT3 cells assessed as increase in caspase 3/7-mediated cleavage of DEVD-pNA at 30 uM after 24 hrs relative to control; format: functional

SMILES: CC(C)[C@H]1CC[C@H](C)C[C@@H]1O[C@@H]1O[C@H](CO[C@@H]2O[C@H](COC(=O)c3ccc(Br)cc3)[C@@H](OC(=O)c3ccc(Br)cc3)[C@H](O)[C@H]2O)[C@@H](O)[C@H](O)[C@H]1O
- Activity (U-937 [1]): Active
- Activity (MCF7 [2]): Active
- Activity (HL-60 [3]): Dose-dependent effect
- IC50 (HL-60 [3]): 14.9 µM
- Activity (U-937 [4]): Active
- Activity (U-937 [5]): inactive
- Activity (U-937 [6]): Active
- Activity (U-937 [7]): Active
- Activity (HL-60 [8]): Active
- Activity (HL-60 [9]): inactive
- Activity (U-937 [10]): Active
- Activity (HL-60 [11]): Active
- Activity (HL-60 [12]): Active
- Activity (HL-60 [13]): Active
- Activity (U-937 [14]): Active
- Activity (U-937 [15]): Active
- fold change (FC) (HL-60 [16]): >7
- Activity (U-937 [17]): Dose-dependent effect
- IC50 (U-937 [17]): 14.1 µM
- Activity (HL-60 [18]): Active
- Activity (MOLT-3 [19]): Dose-dependent effect
- IC50 (MOLT-3 [19]): 12.6 µM
- Activity (HL-60 [20]): inactive
- Activity (U-937 [21]): 23.2%
- Activity (U-937 [22]): Active
- Activity (MOLT-3 [23]): Active
- Activity (MOLT-3 [24]): Active
- Activity (HL-60 [25]): Active
- Activity (U-937 [26]): Active
- Activity (MOLT-3 [27]): Active
- Activity (HL-60 [28]): Active
- Activity (U-937 [29]): Active
- Activity (U-937 [30]): Active
- Activity (HL-60 [31]): Active
- Activity (HL-60 [32]): inactive
- Activity (U-937 [33]): Active
- Activity (HL-60 [34]): 56.9%
- Activity (HL-60 [35]): Active
- Activity (HL-60 [36]): inactive
- Activity (HL-60 [37]): Active
- Activity (MOLT-3 [38]): Active
- Activity (HL-60 [39]): Active
- Activity (U-937 [40]): Active
- Activity (MOLT-3 [41]): Active
- Activity (MOLT-3 [42]): Active
- Activity (HL-60 [43]): Active
- fold change (FC) (U-937 [44]): >7
- Activity (HL-60 [45]): Active
- Activity (MCF7 [46]): Dose-dependent effect
- IC50 (MCF7 [46]): 16 µM
- fold change (FC) (MOLT-3 [47]): >7

SMILES: CC(C)[C@@H]1CC[C@@H](C)C[C@H]1OC1O[C@H](CO[C@@H]2O[C@H](COC(=O)c3ccc(Br)cc3)[C@@H](OC(=O)c3ccc(Br)cc3)[C@H](O)[C@H]2O)[C@@H](O)[C@H](O)[C@H]1O (single isomer, unassigned)
- Activity (MCF7 [2]): Active
- Activity (HL-60 [3]): Dose-dependent effect
- IC50 (HL-60 [3]): 7 µM
- Activity (U-937 [4]): Active
- Activity (U-937 [7]): Active
- Activity (U-937 [10]): Active
- Activity (HL-60 [13]): Active
- Activity (U-937 [17]): Dose-dependent effect
- IC50 (U-937 [17]): 5.8 µM
- Activity (MOLT-3 [19]): Dose-dependent effect
- IC50 (MOLT-3 [19]): 10.6 µM
- Activity (MOLT-3 [23]): Active
- Activity (MOLT-3 [27]): Active
- Activity (HL-60 [28]): Active
- Activity (U-937 [29]): Active
- Activity (HL-60 [35]): Active
- Activity (HL-60 [37]): Active
- Activity (MOLT-3 [41]): Active
- Activity (MOLT-3 [42]): Active
- Activity (MCF7 [46]): Dose-dependent effect
- IC50 (MCF7 [46]): 12.1 µM
